Test results as given in article PMC6646883 (Biomacromolecules, 2019).
Where no end group is shown, it is not given here.

Assay type: physicochemical
Settings: methylene blue assay, dilute solution 0.1 mg/mL in 1x PBS pH 7.4 with Zn(OAc)2, Cys trigger, rt, absorbance at 750 nm, quadruplicate, t1/2=ln(2)/slope

Question: With IAVEEEE [APA 1] as the substance, how does the “H2S release half-life (pseudo-first-order)” value (“H2S release half-life” for short) read?
Answer: 31 min

Question: For IAVEEEE [APA 5], which “H2S release half-life” value is on record?
Answer: 13 min

Question: With IAVEEEE [APA 3] as the substance, how does the “H2S release half-life” value read?
Answer: 19 min
